Measured values: the NIST ThermoML archive (doi:10.1016/j.tca.2014.12.020)
± gives the expanded uncertainty stated by the source.

Legend:
[1] = Molar enthalpy of transition or fusion; details: Crystal; DSC
[2] = molar heat capacity at constant pressure; details: 101.33 kPa, Small sample (50 mg) DSC
[3] = Crystal; DTA

Row | Molar enthalpy of transition or fusion [1] | molar heat capacity at constant pressure ([2]; 298.15 K, Crystal) | molar heat capacity at constant pressure ([2]; 338.15 K, Liquid) | molar heat capacity at constant pressure ([2]; 338.15 K, Crystal) | Normal melting temperature [3] | Compound
1 | 12.4 ± 0.359 kcal/mol | 517.75 ± 23 J/K/mol | 648.61 ± 28 J/K/mol |  |  | CCCCCCCCCCCCCCCCCC(=O)O [octadecanoic acid]
2 |  | 444.11 ± 20 J/K/mol |  | 553.69 ± 23 J/K/mol |  | CCCCCCCCCCCCOS(=O)(=O)[O-].[Na+] [sodium dodecyl sulfate]
3 | 10.5 ± 0.263 kcal/mol | 385.95 ± 16 J/K/mol | 509.27 ± 21 J/K/mol |  | 53.00 ± 5 °C | CCCCCCCCCCCCCC(=O)O [tetradecanoic acid]
